Experimental findings from ChEMBL document CHEMBL1201862, “PubChem BioAssay data set” (2004) are described below.

One may read the EC50 as the concentration that produces a half-maximal response. Broadly, the AC50 is the concentration giving half of the maximal activity seen.

The subject of one assay is Streptococcus. Kind of assay: GAS UMAA2166 growth inhibition – luminescence, BacTiterGlo, counter-screen for streptokinase expression inhibitor project, dose response (AID 1915).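 Note: potency for reduction of bacterial viability or growth.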 In kind it is functional, organism-based. In general terms: The purpose of a counterscreen is to sort out artefacts and off-target activity.
Assay [1] concerns Streptococcus sp. 'group A'. Kind of assay: Streptococcus pyogenes SK(-)GAS viability under kanamycin – luminescence, BacTiterGlo, confirmation, counter-screen for streptokinase expression inhibitor project, dose response (AID 1900). In kind it is functional, organism-based.
Another assay concerns the target T1, Streptokinase A (Streptococcus pyogenes serotype M1, UniProt P10520).
T1 sequence (P10520 whole entry): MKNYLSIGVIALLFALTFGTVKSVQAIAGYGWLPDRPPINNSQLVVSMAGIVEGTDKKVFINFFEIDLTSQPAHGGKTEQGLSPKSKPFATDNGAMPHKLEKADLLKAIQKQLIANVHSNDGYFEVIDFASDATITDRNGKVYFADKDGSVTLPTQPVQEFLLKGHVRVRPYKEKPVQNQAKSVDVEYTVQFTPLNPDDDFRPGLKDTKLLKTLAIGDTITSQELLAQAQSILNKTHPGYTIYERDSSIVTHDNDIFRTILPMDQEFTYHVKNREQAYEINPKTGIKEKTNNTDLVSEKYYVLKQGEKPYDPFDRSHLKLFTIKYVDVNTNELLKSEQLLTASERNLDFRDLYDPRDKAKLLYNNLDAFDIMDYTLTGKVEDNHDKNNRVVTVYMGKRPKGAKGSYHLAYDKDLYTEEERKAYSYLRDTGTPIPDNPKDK
Kind of assay: viability-normalized secreted streptokinase activity reduction – plasminogen activation absorbance, OD405, dose response (AID 1914).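 Note: secreted streptokinase activity via plasminogen activation per viability signal from cell pellet.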 In kind it is functional, Streptococcus pyogenes M1 GAS.

A short description of assay [2]: Trypanosoma cruzi growth suppression in host cells – NIH3T3 host cells, beta-gal luminescence, confirmation (AID 2044).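 Note: intracellular parasites grown in NIH/3T3 mouse fibroblasts as host cells; luminescent beta-galactosidase reporter signal from transgenic T. cruzi replicating inside host cells; inhibitors lower the luminescence signal.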 It is filed as functional, cell-based.
A short description of assay [3]: NIH3T3 cell viability loss – ATP luminescence, mouse fibroblasts, counter-screen, dose response (AID 2010).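 Note: cells exposed to compound for about 90 hours before reading.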 In kind it is functional, cell-based.
Assay [4] is described as follows: Luminescence Cell-Based Dose Retest to Confirm Inhibitors of Cancer Stem Cells. [Related pubchem assays (depositor defined):AID2717, AID2721]. In kind it is functional, Homo sapiens. Particulars: Homo sapiens.

Activity calls are given as the source filed them. Cut-off read from the data, not from the text of the source, for most assays here: actives have a measured EC50 and inactives only a lower limit.
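Throughout, for AC50: cells exposed to compound for roughly 70 hours or longer before luminescence read.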

Consider `CCCCn1c(O)c(N=NC(=O)c2ccccc2NS(=O)(=O)c2cccs2)c2ccccc21`, for which the figures for the EC50 (with Streptococcus; in assay [1]; on Streptokinase A) were 68.3 µM (active), 21.8 µM (active) and > 150 µM (not active), respectively.

Regarding `FC(F)(F)c1cccc(NC(=S)N(CCCN2CCCC2)Cc2cccn2Cc2ccc(Cl)cc2)c1`, the EC50 is 2.15 µM (active) in assay [2] and > 60 µM (not active) in assay [3]. The AC50 in assay [4] is 3.37 µM (active).

Consider `Cc1cc(C)c(S(=O)(=O)c2cc(F)ccc2C)c(Cl)n1`, for which the values for the EC50 in assay [2] and in assay [3] were 1.39 µM (active) and > 60 µM (not active), respectively.

As to `C=CCn1c(SCCC)nc2sc3c(c2c1=O)CCc1ccccc1-3`, the AC50 in assay [4] is 1.1 µM (active).

With `CC(C)(C)c1cc(C(=O)NCCN2CCCC2)cc(C(C)(C)C)c1`, the EC50 in assay [2] is 4.49 µM (active); in assay [3] it was > 30 µM (not active).

For the compound `COCc1cc(CN2CCCC(C(=O)c3cccc(C(F)(F)F)c3)C2)ccc1OC` (stereo unspecified), the EC50 in assay [2] is 0.1 µM (active); in assay [3] it was > 60 µM (inconclusive).

As for `CCc1ccc(/C=C2/SC(=S)N(CC(=O)Nc3nc4ccccc4s3)C2=O)cc1`, the EC50 with Streptococcus is 35.4 µM (active); in assay [1] it was 2.87 µM (active); on Streptokinase A it was > 150 µM (not active).

Turning to `Cc1ccc(-c2cc(C(F)F)n3ncc(C(=O)N4CCCCC4c4cccnc4)c3n2)cc1` (stereo unspecified), the half-maximal effective concentration (EC50) in assay [2] was 0.708 µM (active); in assay [3] it was > 60 µM (inconclusive).

Regarding `CCCCOc1ccc(C(=O)CCN2CCOCC2)cc1`, the figures for the EC50 in assay [2] and in assay [3] were 0.836 µM (active) and > 60 µM (not active), respectively.

As to `Cc1cc(N/N=C/c2ccccc2O)nc(-c2ccccc2O)n1`, the results for the EC50 (in the assay with Streptococcus; in assay [1]) were 2.9 µM (active) and 0.855 µM (active), respectively.

Turning to `CCc1ccc(NC2=NCC(c3ccccc3)S2)cc1` (stereo unspecified), the EC50 in the assay on Streptococcus is 18.8 µM (active); in assay [1], 8.39 µM (active); at Streptokinase A it was > 150 µM (not active).

In the case of `COc1ccc(CC(C)N2CCN(Cc3ccccc3)CC2)c(OC)c1` (stereo unspecified), the results for the EC50 in assay [2] and in assay [3] were 0.502 µM (active) and > 30 µM (not active), respectively.

For the compound `N#Cc1c(N)nc(Sc2ccc(Cl)cc2)c(C#N)c1-c1ccccc1Cl`, the results for the EC50 (with Streptococcus; in assay [1]; on Streptokinase A) were > 150 µM (not active), 4.24 µM (active) and 13.2 µM (active), respectively.

On to `CCc1ccc(OCCCCN(C)Cc2ccccc2)cc1`, for which the EC50 in assay [2] was 0.213 µM (active); in assay [3], > 60 µM (not active).

Consider `O=C(CNCCc1ccc(Cl)cc1)Nc1ccc(C(=O)N2CCCCC2)cc1`, for which the figures for the EC50 in assay [2] and in assay [3] were 0.502 µM (active) and > 60 µM (not active), respectively.

Consider `O=C(N/N=C\c1ccc(F)cc1)c1ccc(Cn2cc(Br)c([N+](=O)[O-])n2)o1`, for which the EC50 in assay [2] was 0.761 µM (active); in assay [3], > 60 µM (not active).

On to `Cc1cc(N2CCN(c3ccccc3Cl)CC2)n2cc(-c3ccccc3)nc2n1`, for which the values for the EC50 (in the assay with Streptococcus; in assay [1]; on Streptokinase A) were 12 µM (active), 11.5 µM (active) and > 150 µM (not active), respectively.

As for `C=CCn1c(SC/C(O)=C(/C#N)C(C)=N)nc2sc(C)c(C)c2c1=O`, the EC50 in the assay on Streptococcus was 10 µM (active); in assay [1], 6.33 µM (active); on Streptokinase A, > 150 µM (not active).

Turning to `CCOC(=O)c1ccc(NC(S)=NN)cc1`, the EC50 in the assay with Streptococcus is > 150 µM (not active); in assay [1] it was 9.57 µM (active).

In the case of `COc1ccc(NC(=O)CCN2CCN(C/C=C/c3ccccc3)CC2)cc1`, the EC50 is 0.686 µM (active) in assay [2] and > 60 µM (not active) in assay [3].

On to `CN1CCN(CC(=O)C23CC4CC(CC(C4)C2)C3)CC1`, for which the values for the EC50 in assay [2] and in assay [3] were 0.225 µM (active) and > 30 µM (not active), respectively.

For the compound `O=C(CSc1nnnn1-c1ccc(O)cc1)N1N=C(c2ccc3ccccc3c2)CC1c1ccccc1` (stereo unspecified), the figures for the EC50 in assay [2] and in assay [3] were 2.08 µM (active) and > 60 µM (not active), respectively.

`CC1CC(NC(=O)c2c(O)n3ccsc3nc2=O)CC(C)(C)C1` (stereo unspecified): the EC50 in the assay on Streptococcus is > 150 µM (not active); in assay [1] it was 11.3 µM (active); at Streptokinase A it was 14.5 µM (active).

`O=C(Nc1ccc(Cl)cc1)Nc1ccccc1Sc1ncc([N+](=O)[O-])s1`: in assay [4], the AC50 was 4.23 µM (active).

With `CCCOc1ccc(-c2nc(SCc3ccccc3)nc(O)c2C#N)cc1OC`, the EC50 in assay [2] was 3.11 µM (active); in assay [3], 17.8 µM (active).

Turning to `CCOC(=O)c1ccc(NC(=S)NN)cc1`, the EC50 at Streptokinase A is on record as > 150 µM (not active).

On to `COc1ccc2sc(-c3ccc(N(C)C)cc3)c(-c3ccc4cc[nH]c4c3)c2c1`, for which the AC50 in assay [4] was 3.54 µM (active).

`O=C(c1cc([N+](=O)[O-])cc([N+](=O)[O-])c1)N1CCN(Cc2ccc3c(c2)OCO3)CC1`: the EC50 in assay [2] is 0.306 µM (active); in assay [3] it was > 60 µM (not active).

Consider `Fc1ccccc1C1c2[nH]c3ccccc3c2CCN1Cc1cccn1-c1ncccn1` (stereo unspecified), for which the values for the EC50 in assay [2] and in assay [3] were 1.07 µM (active) and > 60 µM (not active), respectively.

As for `O=C1CC(NS(=O)(=O)c2ccc([N+](=O)[O-])cc2)CN1c1cccc(F)c1` (stereo unspecified), the EC50 in assay [2] was 1.08 µM (active); in assay [3], > 60 µM (not active).

`C=CCn1c(=O)c(C(=O)NCCc2ccccc2)c(O)c2ccccc21`: in assay [4], the AC50 is 5.39 µM (active).

On to `C/C(=N\Nc1nc2ccccc2s1)c1ccc2c(c1)OCO2`, for which the EC50 in the assay on Streptococcus was 65.6 µM (active); in assay [1] it was 16.7 µM (active); on Streptokinase A, > 150 µM (not active).

`CC(C)c1nc(NCc2ccccc2)c(C#N)c2c1CCCC2`: the figures for the EC50 (in the assay on Streptococcus; in assay [1]; at Streptokinase A) were 12.2 µM (active), 4.75 µM (active) and 1.96 µM (active), respectively.

Consider `COc1cccc(-c2sc3ccc(OC)cc3c2C#CCCO)c1`, for which the AC50 in assay [4] is 2.79 µM (active).

Consider `CC1(C)CC2CC(C)(CN2S(=O)(=O)c2ccc(C(=O)Nc3ccc(Cl)c(S(=O)(=O)N4CCOCC4)c3)cc2)C1` (stereo unspecified), for which the EC50 is 2.22 µM (active) in assay [2] and 21.6 µM (active) in assay [3].

`COc1cc(OC)cc(C(=O)NC(=S)N2CCCCC2c2cccnc2)c1` (stereo unspecified): the EC50 in assay [2] was 0.769 µM (active); in assay [3] it was > 60 µM (not active).

As for `COc1cccc2sc3cc(C#CC4(O)CCCCC4)ccc3c(=O)c12`, in assay [4], the AC50 was 2.4 µM (active).

With `CC(NC(=O)c1cccc(Cn2cc([N+](=O)[O-])cn2)c1)c1ccc(C(C)(C)C)cc1` (stereo unspecified), the EC50 is 2.59 µM (active) in assay [2] and > 60 µM (not active) in assay [3].

For `Oc1cccc(NC(=S)N=Nc2c(O)[nH]c3ccc(Br)cc23)c1`, the EC50 was 4.54 µM (active) with Streptococcus and 1.22 µM (active) in assay [1].
